Results published in patent US7709494B2, “4,5-diphenyl-pyrimidinyl-oxy or -mercapto substituted carboxylic acids, method for the production and use thereof as medicaments” (Sanofi-Aventis, priority 2006, dated 2010).

Molecular target: T1, GPCR GPR40 (Homo sapiens, UniProt O14842)
T1 construct: expressed in transfected cells; host or cells: HEK293
Assay: In vitro FLIPR assay with recombinant cells which express the GPCR GPR40 (agonist-induced intracellular Ca2+ change)
Assay type: cell-based
Conditions: recombinant HEK293 cells expressing GPR40; 100 μM test substance; percentage change relative to control (0%: no test substance; 100%: 10 μM reference agonist linoleic acid)
Method: In vitro FLIPR assay with recombinant cells which express the GPCR GPR40
Function-testing assays were carried out by means of the FLIPR technique (“Fluorescence Imaging Plate Reader”, Molecular Devices Corp.). For this purpose, agonist-induced changes in the intracellular concentration of Ca^2+ in recombinant HEK293 cells which expressed the GPCR. GPR40 were determined.
For the investigations, cells were seeded in 96-well microtiter plates (60 000 cells/well) and allowed to grow overnight. The medium was removed and the cells were incubated in buffer which contained the fluorescent dye fluo-4. After this loading with dye, the cells were washed, test substance was added, and changes in the intracellular Ca^2+ concentration were measured in the FLIPR instrument. Results have been presented as percentage change relative to the control (0%: no test substance added; 100%: 10 μM reference agonist linoleic acid added).

T1 sequence (O14842 whole entry): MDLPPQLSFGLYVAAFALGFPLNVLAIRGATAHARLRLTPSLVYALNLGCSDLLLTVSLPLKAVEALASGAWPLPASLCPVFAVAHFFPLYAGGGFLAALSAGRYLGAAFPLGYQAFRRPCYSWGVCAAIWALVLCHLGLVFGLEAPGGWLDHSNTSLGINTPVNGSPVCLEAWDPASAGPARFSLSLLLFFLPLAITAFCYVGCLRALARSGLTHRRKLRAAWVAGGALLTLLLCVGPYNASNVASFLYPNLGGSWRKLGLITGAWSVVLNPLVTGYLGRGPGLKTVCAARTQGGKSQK

Compound | % activation @ 100 μM
O=C(O)CC12CC3CC(C1)CC(Sc1ncc(-c4ccccc4)c(-c4ccccc4)n1)(C3)C2 [Example 5, [3-(4,5-Diphenylpyriidin-2-ylsulfanyl)adamantan-1-yl]acetic acid] | 64%
O=C(O)[C@H]1CCCC(Oc2ncc(-c3ccccc3)c(-c3ccccc3)n2)C1 (stereo partly drawn) [Example 6, (1S)-3-(4,5-Diphenylpyrimidin-2-yloxy)cyclohexanecarboxylic acid] | 66%
O=C(O)[C@H]1CCC[C@@H](COc2ncc(-c3ccccc3)c(-c3ccccc3)n2)C1 [Example 1, (1S,3R)-3-(4,5-Diphenylpyrimidin-2-yloxymethyl)cyclohexanecarboxylic acid] | 74%
O=C(O)C1CCC(COc2ncc(-c3ccccc3)c(-c3ccccc3)n2)CC1 (mixture of isomers) [Example 4, Cis/trans-4-(4,5-diphenylpyrimidin-2-yloxymethyl)cyclohexanecarboxylic cid] | 96%
CCC(CCC1CC1C(=O)O)Oc1ncc(-c2ccccc2)c(-c2ccccc2)n1 (stereo not drawn) [Example 10, 2-[3-(4,5-Diphenylpyrimidin-2-yloxy)pentyl]cyclopropanecarboxylic acid] | 5%
O=C(O)C1CC1CCCCCSc1ncc(-c2ccccc2)c(-c2ccccc2)n1 (stereo not drawn) [Example 7, 2-[5-(4,5-Diphenylpyrimidin-2-ylsulfanyl)pentyl]cyclopropanecarboxylic acid] | 101%
O=C(O)[C@H]1CC[C@@H](COc2ncc(-c3ccccc3)c(-c3ccccc3)n2)C1 (relative stereo) [Example 3, cis-3-(4,5-Diphenylpyrimidin-2-yloxymethyl)cyclopentanecarboxylic acid] | 76%
O=C(O)C1CC1CCCCOc1ncc(-c2ccccc2)c(-c2ccccc2)n1 (stereo not drawn) [Example 9, 2-[4-(4,5-Diphenylpyrimidin-2-yloxy)butyl]cyclopropanecarboxylic acid] | 101%
cis-(4,5-Diphenylpyrimidin-2-yloxymethyl)cyclohexanecarboxylic acid [Example 2] | 91%
